Test results as given in patent publication US20090233868A1, “Small antiviral peptides against hepatitis C virus” (priority 2005, published 2009).
Where no end group is shown, it is not given here.

Columns and labels:
[1] = tested on: HCV IRES mediated translation; assay: In vitro translation of uncapped HCV-IRES-Luc monocistronic RNA in rabbit reticulocyte lysate; format: biochemical, hepatitis C virus; settings: RRL; for IC50: uncapped HCV IRES-Luc RNA, data not shown, read-out: IC50 for inhibition of HCV IRES mediated translation
[2] = tested on: cap-dependent translation; assay: In vitro translation of capped Luciferase RNA in RRL; format: biochemical, rabbit; settings: 15, 30, 60 μM peptide; FIG. 5C
[3] = tested on: IRES mediated translation of hepatitis A virus; format: biochemical
[4] = tested on: Polio virus IRES function; format: biochemical; settings: at higher concentration (15, 30, 60 μM tested); FIG. 5E
[5] = tested on: HCV IRES mediated translation; assay: In vitro translation of capped HCV bicistronic RNA in RRL; settings: 15, 30, 60 μM peptide; FIG. 5D
HCV IRES RNA = assay: UV-crosslinking assay with [32P] labeled HCV IRES RNA; format: binding, hepatitis C virus; settings: 2 μM and 4 μM peptide; FIG. 6A
Huh7 cells = assay: Internalization of fluorescein labeled hexa-arginine-tagged peptides; format: cell-based; settings: fluorescein tagged peptide, 3 hours incubation; FIG. 6B
[6] = tested on: HCV IRES mediated translation; assay: HCV bicistronic construct luciferase assay in Huh7 cells with arginine-tagged peptides; format: cell-based, hepatitis C virus; settings: 2 μM peptide, 4 hours or 6 hours
[7] = tested on: HCV monocistronic replicon; assay: HCV negative strand real time PCR in Huh7 cells harboring HCV monocistronic replicon; format: cell-based, hepatitis C virus

KYKETDLLILFKDDYFAKKNEERK [LaR2C] gave an IC50 [1] of 30 µM.

KYKETDL [LaR2C-N7] was tested, and the IC50 [1] was ~40 µM, the “Translation inhibitory activity on HCV IRES-Luc RNA” value ([1]; 30 and 60 μM (FIG. 3C) or 15, 30 and 60 μM (FIG. 5A, 5B)) was “only slightly weaker than the 24-mer peptide” and the “Inhibition of capped-Luciferase RNA translation (cap-dependent)” value [2] was “did not show significant inhibition”. The “Inhibition of IRES mediated translation of hepatitis A virus” value [3] was “failed to inhibit”, the “Inhibition of Polio virus IRES function” value [4] was “significant inhibition” and the “Inhibition of HCV IRES (Fluc) vs cap dependent (Rluc) translation of bicistronic RNA” value [5] was “selective inhibition of HCV IRES mediated translation”.

RRRRRRKYKETDL [Arg-LaR2C-N7] was tested, and the “RNA binding activity of hexa-arginine tagged peptides (UV cross-linking)” value (HCV IRES RNA) was “showed RNA binding activity”, the “Internalization into Huh7 cells (fluorescence microscope)” value (Huh7 cells) was “internalized inside Huh7 cells” and the “Inhibition of HCV IRES mediated translation over the control in Huh7 cells” value [6] was “up to 70%”. The “Decrease in levels of HCV negative strand RNAs compared to untreated cells” value ([7]; 4 μM peptide added at 0 and 12th hour, RNA at 24th hour) was ~50% and the “Inhibitory activity on HCV negative strand synthesis” value ([7]; 10 μM peptide, data not shown) was “considerable increase in the inhibitory activity”.
